For ten molecules, IC50 results are on record in patent US20250127907A1, “PARP INHIBITORS” (Stablix, Inc., priority 2023, published 2025).

Some results are limits rather than exact numbers.

Holding throughout (format): cell-based
In one experiment the test system is A2780 cells. In words: Cell proliferation assay (A2780). Particulars: Homo sapiens, 168 h, 7 days. The procedure:
(§1) Cells are counted, diluted to desired density and 40 μL of cell suspension is added into each 384-well tissue-culture treated plates. Plates are incubated in Tissue Culture incubator at 37° C./5% C02 overnight.
(§2) Next day, 40 nl test compounds that are prepared from source plates are transferred to the seeded cells from overnight. Plates are incubated at 37° C./5% C02 for a total of 7 days. After 7-day incubation, plates are equilibrated to room temperature and 30 ul of Cell Counting-Lite is added to each well for a 30 min incubation followed by reading on EnVision.
(§3) The letter codes for the cell proliferation assay in A2780, HCC1806, and MDA-MB-436 cells include: A (<10 nM), B (>10-100 nM), C (>100-1000 nM), D (>1000-10000 nM), E (>10000 nM), and “-” is not tested.

The target of the next experiment is PARP1 (Homo sapiens, UniProt P09874). In words: PARP trapping assay in U2OS cells. Also on record: endogenous in cells; host or cells: U2OS. As to conditions: U2OS cells, MMS, 4 hrs; read-out: PARP Trapping (U2OS). Here is the method: U2OS cells are seeded at 15,000 cells/well in 90 ul medium and incubated in the TC incubator for overnight.
Sequence of PARP1 (P09874 whole entry): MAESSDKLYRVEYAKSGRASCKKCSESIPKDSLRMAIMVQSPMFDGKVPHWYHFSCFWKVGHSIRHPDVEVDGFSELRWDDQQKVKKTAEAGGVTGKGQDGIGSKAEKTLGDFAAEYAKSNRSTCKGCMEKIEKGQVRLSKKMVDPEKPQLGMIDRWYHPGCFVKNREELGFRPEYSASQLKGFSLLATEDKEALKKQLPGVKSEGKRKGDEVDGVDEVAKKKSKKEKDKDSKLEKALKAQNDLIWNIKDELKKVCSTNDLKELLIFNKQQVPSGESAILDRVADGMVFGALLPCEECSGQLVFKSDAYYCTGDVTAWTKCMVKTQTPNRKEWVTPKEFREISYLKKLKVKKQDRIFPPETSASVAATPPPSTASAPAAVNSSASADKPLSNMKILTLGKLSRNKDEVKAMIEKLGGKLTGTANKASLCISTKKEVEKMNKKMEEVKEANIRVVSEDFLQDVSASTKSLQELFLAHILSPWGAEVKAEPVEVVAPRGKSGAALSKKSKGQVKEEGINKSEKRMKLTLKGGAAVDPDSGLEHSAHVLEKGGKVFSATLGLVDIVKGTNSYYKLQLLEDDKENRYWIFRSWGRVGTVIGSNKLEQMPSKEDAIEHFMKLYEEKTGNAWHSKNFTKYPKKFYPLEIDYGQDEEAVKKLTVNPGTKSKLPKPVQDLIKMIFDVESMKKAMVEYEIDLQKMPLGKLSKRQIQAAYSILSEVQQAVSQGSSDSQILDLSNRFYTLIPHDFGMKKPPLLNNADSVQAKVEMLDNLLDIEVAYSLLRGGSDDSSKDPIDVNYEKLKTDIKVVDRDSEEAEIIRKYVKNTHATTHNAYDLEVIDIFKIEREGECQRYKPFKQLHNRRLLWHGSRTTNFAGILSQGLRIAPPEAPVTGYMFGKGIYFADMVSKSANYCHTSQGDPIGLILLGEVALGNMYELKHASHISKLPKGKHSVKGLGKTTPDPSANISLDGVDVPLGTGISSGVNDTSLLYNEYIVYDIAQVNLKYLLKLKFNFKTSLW
Next day, test compounds are prepared in a source plate along with addition of DNA damage reagent MMS simultaneously and 10 ul of the diluted mixture is added to the cell plate and incubated for 4 hrs under T/C conditions.
After 4 hrs, following aspiration and washing, add 100 ul of cold cytoskeleton removal buffer (0.5% Triton X-100) and incubated for 10 min. At the end of incubation, slowly the buffer is removed, and cells are fixed with ice cold MeOH for 15 min at −20C. Followed by wash steps, cells are blocked with 1×PBS/3% BSA/0.05% Tween for 1 h at room temperature.
Cells are stained with anti PARP1 antibody (abeam ab227244, 1:1000), in 1×PBS/1% BSA overnight at 4C.
Wash and add DAPI, scan cells in Celigo.
Data Analysis: DAPI staining is used to segment nuclei and AF488 fluorescence intensity per nucleus is measured.
(§4) The letter codes for the PARP1-enzyme assay include: A (<1 nM), B (>1-10 nM), C (>10-100 nM), D (>100-1000 nM), E (>1000 nM), and “-” is not tested. The letter codes for the PARP trapping assay, and parylation assay include: A (<10 nM), B (>10-100 nM), C (>100-1000 nM), […], E (>10000 nM), and “-” is not tested.

The test system of experiment [1] is Poly/Mono-ADP Ribose in U2OS cells. In words: PAR in cell western assay (parylation) in U2OS cells. Particulars: Homo sapiens; U2OS cells, 6 hrs, 2 mM H2O2; read-out: Parylation (U2OS). Here is the method:
U2OS cells are seeded at 2667 cells per well in 24 ul medium into poly-D lysine-coated 384 well plate and incubated in the TC incubator for O/N
The next day, test comps are diluted in a source plate and 6 μL of the diluted comp is added to the cell plate; mixed well and incubated for 6 hrs. DNA damage is induced with 2 mM H2O2 for 10 min. After discarding the medium, cells are fixed in ice cold Methanol at for 20 min at −20C. After a wash step at room temperature, cells are permeabilized with 0.05% NP-40 in PBS for 10 min, followed by wash steps. Cells are blocked with 1% BSA, at room temperature for 1 hr. Cells are stained with anti mono/polyADP ribose antibody (E6F6A, Cell signaling, 1:5000) in 1×PBS/1% BSA/0.05% Tween o/n at 4C.
Next Day, cells are washed and incubated with anti-Rabbit 800CV (Licor antibody, 1:500) and CellTag 700 (Licor, 1:800) in 1×PBS/1% BSA/0.05% Tween for 1 h. After washing, plates are scanned using LICOR and are quantified.
Parylation inhibition is reported as % control inhibition.
as §4

A further experiment relates to MDA-MB-436 cells. In words: Cell proliferation assay (MDA-MB-436). Particulars: Homo sapiens, 168 h, 7 days. The procedure:
as §1, §2, §3

`CCc1cccc(-c2cnc(C(=O)N3CCC(CN4CCN(CC(=O)N5CCN(C(=O)c6cc(Cc7n[nH]c(=O)c8ccccc78)ccc6F)CC5)CC4)CC3)c(C#N)c2)c1` [Compound I-419]: the IC50 in the experiment on A2780 cells was 10 to 100 nM; on PARP1, 100 to 1000 nM; in experiment [1], 10 to 100 nM; in the experiment with MDA-MB-436 cells, below 10 nM.

`CCc1cccc(-c2cnc(C(=O)N3CCC(CC(=O)N4CCN(C(=O)c5cc(Cc6n[nH]c(=O)c7ccccc67)ccc5F)CC4)CC3)c(NC(=O)CNCc3cccc(C)c3)c2)c1` [Compound I-412]: the IC50 was 10 to 100 nM in the experiment on A2780 cells, 10 to 100 nM at PARP1, 100 to 1000 nM in experiment [1] and below 10 nM with MDA-MB-436 cells.

Regarding `CCc1cccc(-c2cnc(C(=O)N3CCC(CN4CCN(CC(=O)N5CCN(C(=O)c6cc(Cc7n[nH]c(=O)c8ccccc78)ccc6F)CC5)CC4)CC3)c(NC(=O)CN3CCOCC3)c2)c1` [Compound I-333], the IC50 in the experiment on A2780 cells was 100 to 1000 nM; at PARP1 it was 100 to 1000 nM; in experiment [1], 10 to 100 nM; in the experiment with MDA-MB-436 cells, 10 to 100 nM.

Turning to `CCOc1cc(OC)ccc1CNCC(=O)N1CCCC(c2ccc(F)c(C(=O)N[C@@H](C(=O)N3CCN(CC4CCN(CC(=O)N5CCN(C(=O)c6cc(Cc7n[nH]c(=O)c8ccccc78)ccc6F)CC5)CC4)CC3)C3CCCCC3)c2)C1` (stereo partly shown) [Compound I-308], the IC50 with A2780 cells lay within 100 to 1000 nM; on PARP1 it was 10 to 100 nM; in experiment [1], 10 to 100 nM; in the experiment with MDA-MB-436 cells, 100 to 1000 nM.

Take `O=C(N[C@@H](C(=O)N1CCN(CC(=O)N2CCN(C(=O)c3cc(Cc4n[nH]c(=O)c5ccccc45)ccc3F)CC2)CC1)C1CCCCC1)c1cccc(C2CCCN(C(=O)C3CC3)C2)c1F` (stereo partly shown) [Compound I-454]: the IC50 in the experiment with A2780 cells was 10 to 100 nM; on PARP1, 100 to 1000 nM; in experiment [1] it was 10 to 100 nM; with MDA-MB-436 cells it was 100 to 1000 nM.

In the case of `CCc1cccc(-c2cc(N)c(C(=O)N3CCC(CN4CCN(CC(=O)N5CCN(C(=O)c6cc(Cc7n[nH]c(=O)c8ccccc78)ccc6F)CC5)CC4)CC3)c(F)c2)c1` [Compound I-409], the IC50 with A2780 cells is 100 to 1000 nM; at PARP1, 100 to 1000 nM; in experiment [1] it was 100 to 1000 nM; in the experiment with MDA-MB-436 cells, below 10 nM.

Regarding `O=C(N[C@@H](C(=O)N1CCN(CC23CCC(C(=O)N4CCN(C(=O)c5cc(Cc6n[nH]c(=O)c7ccccc67)ccc5F)CC4)(CC2)CO3)CC1)C1CCCCC1)c1cccc(C2CCCN(C(=O)CNC3CC3)C2)c1` (stereo partly shown) [Compound I-380], the IC50 was 10 to 100 nM in the experiment with A2780 cells, 10 to 100 nM at PARP1, 10 to 100 nM in experiment [1] and below 10 nM in the experiment with MDA-MB-436 cells.

On to `O=C(N[C@@H](C(=O)N1CCN(CC23CCC(C(=O)N4CCN(C(=O)c5cc(Cc6n[nH]c(=O)c7ccccc67)ccc5F)CC4)(CC2)CO3)CC1)C1CCCCC1)c1cccc([C@H]2CCCN(C(=O)CNC3CC3)C2)c1` (racemic) [Compound I-381], for which the IC50 in the experiment on A2780 cells was 10 to 100 nM; at PARP1 it was below 10 nM; in experiment [1], 100 to 1000 nM; in the experiment with MDA-MB-436 cells, 10 to 100 nM.

On to `O=C(N[C@@H](C(=O)N1CCN(CC(=O)N2CCN(C(=O)c3cc(Cc4n[nH]c(=O)c5ccccc45)ccc3F)CC2)CC1)C1CCCCC1)c1cc(C2CCCN(C(=O)C3CC3)C2)ccc1F` (stereo partly shown) [Compound I-453], for which the IC50 lay in the range of 10 to 100 nM in the experiment with A2780 cells, 100 to 1000 nM at PARP1, 100 to 1000 nM in experiment [1] and 10 to 100 nM in the experiment on MDA-MB-436 cells.

In the case of `O=C(N[C@@H](C(=O)N1CCN(CC23CCC(C(=O)N4CCN(C(=O)c5cc(Cc6n[nH]c(=O)c7ccccc67)ccc5F)CC4)(CC2)CO3)CC1)C1CCCCC1)c1cccc([C@@H]2CCCN(C(=O)CNC3CC3)C2)c1` [Compound I-382], the IC50 with A2780 cells is 10 to 100 nM; at PARP1 it was 10 to 100 nM; in experiment [1], 10 to 100 nM; with MDA-MB-436 cells, below 10 nM.
